In patent US8901125B2, “Substituted bicyclic alkoxy pyrazole analogs as allosteric modulators of mGluR5 receptors” (Vanderbilt University, priority 2012, dated 2014):

What was measured:
[1] = molecular target: human mGluR5a receptor (Homo sapiens, UniProt P41594); test: Cell-based functional assay (Ca2+ mobilization, FDSS), potentiation of glutamate EC20 response; settings: H10H cell line; for Emax: maximum % effect in the concentration-response curve as percent of maximal glutamate response, glutamate EC20; for EC50: potentiation in presence of glutamate EC20, concentration in mol/L
Sequence of human mGluR5a receptor (P41594 21-1180 isoform P41594-2 limits assumed): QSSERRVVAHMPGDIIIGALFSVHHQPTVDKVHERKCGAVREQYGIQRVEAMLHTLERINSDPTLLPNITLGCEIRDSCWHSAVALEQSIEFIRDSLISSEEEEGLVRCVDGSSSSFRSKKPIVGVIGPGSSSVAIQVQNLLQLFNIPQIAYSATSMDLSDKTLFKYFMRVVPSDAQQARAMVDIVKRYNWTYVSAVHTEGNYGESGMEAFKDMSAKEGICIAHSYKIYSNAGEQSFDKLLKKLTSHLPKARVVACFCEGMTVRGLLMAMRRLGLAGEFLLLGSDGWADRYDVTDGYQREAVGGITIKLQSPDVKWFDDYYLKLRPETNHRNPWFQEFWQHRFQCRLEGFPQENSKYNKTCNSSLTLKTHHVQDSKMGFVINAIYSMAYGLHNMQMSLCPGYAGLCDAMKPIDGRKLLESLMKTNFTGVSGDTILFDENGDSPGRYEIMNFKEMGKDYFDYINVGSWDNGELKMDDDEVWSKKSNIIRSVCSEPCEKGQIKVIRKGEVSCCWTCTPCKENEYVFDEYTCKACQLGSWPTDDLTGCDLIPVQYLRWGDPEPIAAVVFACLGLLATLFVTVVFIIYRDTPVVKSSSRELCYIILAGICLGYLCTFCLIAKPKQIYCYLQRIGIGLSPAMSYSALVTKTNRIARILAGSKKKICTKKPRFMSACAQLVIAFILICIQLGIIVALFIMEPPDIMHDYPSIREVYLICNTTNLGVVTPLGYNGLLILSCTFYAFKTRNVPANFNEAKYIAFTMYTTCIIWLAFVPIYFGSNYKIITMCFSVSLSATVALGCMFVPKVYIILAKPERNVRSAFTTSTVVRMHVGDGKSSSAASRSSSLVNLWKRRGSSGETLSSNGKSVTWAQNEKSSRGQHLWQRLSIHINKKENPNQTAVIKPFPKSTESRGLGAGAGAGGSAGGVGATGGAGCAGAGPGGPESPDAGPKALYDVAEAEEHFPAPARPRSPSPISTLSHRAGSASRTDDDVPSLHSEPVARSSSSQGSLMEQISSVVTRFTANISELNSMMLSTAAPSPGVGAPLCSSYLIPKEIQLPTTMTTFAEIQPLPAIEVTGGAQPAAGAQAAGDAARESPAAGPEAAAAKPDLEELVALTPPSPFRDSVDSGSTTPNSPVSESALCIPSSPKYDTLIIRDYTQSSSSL
Text: Human mGluR5a cDNA in pCMV6-XL6 mammalian expression plasmid was purchased from OriGene Technologies, Inc. (catalogue number SC326357) and subcloned into pcDNA3.1(−). Human embryonic kidney (HEK)293A cells were then transfected with human mGluR5a pcDNA3.1(−) using LipofectAmine-2000 (Invitrogen) and monoclones were selected and tested for functional response using a Ca^2+ mobilization assay. Monoclones were named for the species (“H” for human) plus the location on the plate (e.g. “10H”).
HEK cells transfected with the human mGluR5a receptor (H10H or H12H cell line) were plated at 15,000 cells/well in clear-bottomed poly-D-lysinecoated assay plates (BD Falcon) in glutamate-glutamine-free growth medium and incubated overnight at 37° C. and 5% CO2. Cell-lines used were either the H10H or H12H cell-lines expressing the human mGluR5 receptor. The following day, the growth medium was removed and the cells were washed with assay buffer containing 1× Hank's balanced salt solution (Invitrogen, Carlsbad, Calif.), 20 mM HEPES, 2.5 mM probenecid, pH 7.4 and left with 20 μL of this reagent. Following this step, the cells were loaded with calcium indicator dye, fluo-4 AM, to a final concentration of 2 μM and incubated for 40-45 min at 37° C. The dye solution was removed and replaced with assay buffer. Cell plates were held for 10-15 min at room temperature and were then loaded into the Functional Drug Screening System 6000 (FDSS 6000, Hamamatsu, Japan).
After establishment of a fluorescence baseline for about 3 seconds, the compounds of the present invention were added to the cells, and the response in cells was measured. 2.3 minutes later an EC20 concentration of the mGluR5 receptor agonist glutamate was added to the cells, and the response of the cells was measured for about 1.7 minutes. All test compounds were dissolved and diluted to a concentration of 10 mM in 100% DMSO and then serially diluted into assay buffer for a 2× stock solution in 0.6% DMSO; stock compounds were then added to the assay for a final DMSO concentration of 0.3% after the first addition to the assay well. Calcium fluorescence measures were recorded as fold over basal fluorescence; raw data was then normalized to the maximal response to glutamate. Potentiation of the agonist response of the mGluR5 receptor in the present invention was observed as an increase in response to submaximal concentrations of glutamate in the presence of compound compared to the response to glutamate in the absence of compound.
The concentration-response curves of compounds of the present invention, obtained in the presence of EC20 of mGluR5 receptor agonist glutamate to determine positive allosteric modulation, were generated using Microsoft Excel with IDBS XLFit add-ins. The raw data file containing all time points was used as the data source in the analysis template. This was saved by the FDSS as a tab-delimited text file. Data were normalized using a static ratio function (F/F0) for each measurement of the total 350 values per well divided by each well's initial value. Data was then reduced as to peak amplitudes (Max Initial Min) using a time range that starts approximately 1 second after the glutamate EC20 addition and continues for approximately 40 seconds. This is sufficient time to capture the peak amplitude of the cellular Calcium response. Individual amplitudes were expressed as % EMax by multiplying each amplitude by 100 and then dividing the product by the mean of the amplitudes derived from the glutamate ECMax-treated wells. pEC50 values for test compounds were generated by fitting the normalized values versus the log of the test compound concentration (in mol/L) using a 4 parameter logistic equation where none of the parameters were fixed. Each of the three values collected at each concentration of test compound were weighted evenly. Individual values falling outside the 95% prediction limits of the curve fit were automatically excluded from the fit. […]

| Compound | Emax [1] | EC50 [1] | melting point |
| --- | --- | --- | --- |
| COc1cc(N2CCn3nc(OCc4ccccc4)cc3C2=O)ccc1F [Example B8] | 45% | 132 nM | 145.3 °C |
| CC1(CN2CCn3nc(OCc4ccccc4)cc3C2=O)COC1 [Example B55] | 37% |  |  |
| COc1cc(F)cc(CN2CCn3nc(OCc4ccccc4)cc3C2=O)c1 [Example B63] | 62% | 646 nM |  |
| COc1c(Cl)cccc1CN1CCn2nc(OCc3ccccc3)cc2C1=O [Example B57, 2-(benzyloxy)-5-(3-chloro-2-methoxybenzyl)-6,7-dihydropyrazolo[1,5-a]pyrazin-4(5H)-one] | 42% | 75.9 nM | 232.7 °C |
| COc1cccc(CN2CCn3nc(OCc4ccccc4)cc3C2=O)c1F [Example B66] | 63% | 363 nM |  |
| N#Cc1cccc(COc2cc3n(n2)CCN(c2ccc(F)cc2)C3=O)c1 [Example B27] | 31% | 148 nM | 147.9 °C |
| O=C1c2cc(OCc3ccccn3)nn2CCN1c1ccc(F)cc1 [Example B34] | 23% | > 30200 nM |  |
| C[C@@H]1Cn2nc(OCc3ccccc3)cc2C(=O)N1c1ccc(F)cc1 [Example B9] | 52% | 87.1 nM | 229.9 °C |
| COc1ccc(F)cc1CN1CCn2nc(OCc3ccccc3)cc2C1=O [Example B68] | 58% | 178 nM |  |
| COc1nc(N2CCn3nc(OCc4ccccc4)cc3C2=O)ncc1F [Example B21] | 55% | 251 nM | 223 °C |
| COc1cc(CN2CCn3nc(OCc4ccccc4)cc3C2=O)ccc1F [Example B69] | 63% | 692 nM | 115.1 °C |
| O=C1c2cc(OCc3ccccc3)nn2CCN1CC1CC1 [Example B44, 2-(benzyloxy)-5-(cyclopropylmethyl)-6,7-dihydropyrazolo[1,5-a]pyrazin-4(5H)-one] | 26% | ≥ 30200 nM |  |
| COc1ccc(COc2cc3n(n2)CCN(c2ccc(F)cc2)C3=O)cc1 [Example B30] | 28% | > 30200 nM | 164.6 °C |
| O=C1c2cc(OCc3ccccc3F)nn2CCN1c1ccc(F)cc1 [Example B4, 2-[(2-fluorobenzyl)oxy]-5-(4-fluorophenyl)-6,7-dihydropyrazolo[1,5-a]pyrazin-4(5H)-one] | 63% | 141 nM | 119 °C |
| O=C1c2cc(OCc3ccc(F)cc3)nn2CCN1c1ccc(F)cc1 [Example B32] | 18% | > 30200 nM | 155.8 °C |
| O=C1c2cc(OCc3ccncc3)nn2CCN1c1ccc(F)cc1 [Example B31] | 26% | > 30200 nM | 172.9 °C |
| O=C1c2cc(OCc3ccccc3)nn2CCN1Cc1ccccc1 [Example B59] | 36% | 87.1 nM | 103.8 °C |
| Cc1cccc(COc2cc3n(n2)CCN(c2ccc(F)cc2)C3=O)n1 [Example B36] | 27% | > 30200 nM | 158.5 °C |
| O=C1c2cc(OCc3ccccc3)nn2CCN1CC1CCC1 [Example B56] | 52% | 1070 nM |  |
| O=C1c2cc(OCc3ccccc3)nn2CCCN1CC1CC1(F)F (centres unmarked) [Example B73] | 20% | > 30200 nM |  |
| O=C1c2cc(OCc3ccccc3)nn2CCN1CC1CC1(F)F (centres unmarked) [Example B72] | 21% | > 30200 nM | 107.4 °C |
| COc1ccccc1COc1cc2n(n1)CCN(c1ccc(F)cc1)C2=O [Example B29] | 36% | 1200 nM | 140.2 °C |
| CC1CN(Cc2ccccc2)C(=O)c2cc(OCc3ccccc3)nn21 (single isomer, unassigned) [Example B62] | 61% | 102 nM |  |
| COc1cccc(CN2CCn3nc(OCc4ccccc4)cc3C2=O)c1Cl [Example B67] | 63% | 115 nM |  |
| C[C@@H]1Cn2nc(OCc3ccccc3)cc2C(=O)N1Cc1ccccc1 [Example B61] | 59% | 257 nM |  |
| O=C1c2cc(OCc3cccnc3)nn2CCN1c1ccc(F)cc1 [Example B35] | 12% | > 30200 nM |  |
| O=C1c2cc(OCc3ccccc3)nn2CCN1CC1CC(F)(F)C1 [Example B71] | 59% | 692 nM |  |

Second part, the compound after the results:

| Emax [1] | EC50 [1] | melting point | Compound |
| --- | --- | --- | --- |
| 54% | 182 nM |  | O=C1c2cc(OCc3ccccc3)nn2CCN1c1ccc(F)cc1 [Example B1, 2-(benzyloxy)-5-(4-fluorophenyl)-6,7-dihydropyrazolo[1,5-a]pyrazin-4(5H)-one] |
| 37% | > 10000 nM | 167.2 °C | O=C1c2cc(OCc3ccccc3)nn2CCN1c1ccncc1 [Example B13] |
| 59% | 112 nM | 146.2 °C | O=C1c2cc(OCc3ccccc3)nn2CCN1c1cccc(C2CC2)n1 [Example B3, 2-(benzyloxy)-5-(6-cyclopropylpyridin-2-yl)-6,7-dihydropyrazolo[1,5-a]pyrazin-4(5H)-one] |
| 47% | 550 nM | 140.2 to 140.7 °C | O=C1c2cc(OCc3ccccc3)nn2CCCN1c1ccc(F)cc1 [Example B49, 2-(benzyloxy)-5-(4-fluorophenyl)-5,6,7,8-tetrahydro-4H-pyrazolo[1,5-a][1,4]diazepin-4-one] |
| 25% | > 10000 nM | 112.1 to 119.1 °C | O=C1c2cc(OCc3ccccc3)nn2CCCN1c1ccc(F)cn1 [Example B50, 2-(benzyloxy)-5-(5-fluoropyridin-2-yl)-5,6,7,8-tetrahydro-4H-pyrazolo[1,5-a][1,4]diazepin-4-one] |
| 25% | > 10000 nM | 153.5 °C | O=C1c2cc(OCc3ccccc3)nn2CCN1c1ccccn1 [Example B11] |
| 45% | > 10000 nM | 145.5 °C | O=C1c2cc(OCc3ccccc3)nn2CCN1c1ccc(F)cn1 [Example B16] |
| 45% | 339 nM | 145.2 °C | Cc1cc(N2CCn3nc(OCc4ccccc4)cc3C2=O)ncc1F [Example B18] |
| 53% | 174 nM | 152.1 °C | Cc1cccc(N2CCn3nc(OCc4ccccc4)cc3C2=O)n1 [Example B14] |
| 43% | 708 nM | 215.2 °C | Cc1cncc(N2CCn3nc(OCc4ccccc4)cc3C2=O)n1 [Example B22] |
| 48% | 269 nM | 142.2 to 142.3 °C | Cc1cccc(N2CCCn3nc(OCc4ccccc4)cc3C2=O)n1 [Example B52] |
| 53% | 363 nM | 114.6 to 116.1 °C | Cc1nc(N2CCCn3nc(OCc4ccccc4)cc3C2=O)ccc1F [Example B51] |
| 44% | 229 nM | 151.9 °C | O=C1c2cc(OCc3ccccc3)nn2CCN1c1ccccc1F [Example B6] |
| 47% | 102 nM | 209.8 °C | Cc1cc(N2CCn3nc(OCc4ccccc4)cc3C2=O)ccc1F [Example B7] |
| 57% | 380 nM |  | O=C1c2cc(OCc3ccccc3)nn2CCCN1Cc1ccccc1 [Example B58, 5-benzyl-2-(benzyloxy)-5,6,7,8-tetrahydro-4H-pyrazolo[1,5-a][1,4]diazepin-4-one] |
